We go through nine molecules from PMC12071944, “Interaction Between Glucagon-like Peptide 1 and Its Analogs with Amyloid-β Peptide Affects Its Fibrillation and Cytotoxicity” (International Journal of Molecular Sciences, 2025).

Series [1] deals with SH-SY5Y cells. Put plainly: MTT assay, Aβ42 cytotoxicity toward SH-SY5Y cells. Conditions: 48 h. In general terms: Tetrazolium dyes change colour on reduction, which living cells bring about.
Method: (§1) GLP-1RAs were premixed with Aβ40/Aβ42 at an equimolar ratio in serum-free medium and added to the SH-SY5Y cells cultured in the same medium to a final concentration of both components of 10 µM. Staining with MTT was performed after incubation of the cells for 48 h.
(§2) Mean values and standard deviations are indicated.
(§3) Human neuroblastoma SH-SY5Y cells were cultured in DMEM-F12 medium supplemented with 1% penicillin-streptomycin-glutamine and 10% fetal bovine serum at 37 °C for 24 h in a humidified atmosphere with 5% CO2. Upon reaching 80% confluence, the cells were harvested and seeded into 96-well plates at a density of 15 × 10^5 cells per well in serum-free DMEM/F12 + PSG medium.
(§4) The Aβ40/Aβ42 samples were dissolved in fresh 1% NH4OH at a concentration of 0.5 mg/mL, followed by freeze-drying.
Freshly prepared Aβ40/Aβ42, GLP-1RAs, or their mixtures were added (100 µL per well) to the cultures 24 h after seeding to a final concentration of both components of 10 µM. The final volume of medium in the well was 200 µL. The MTT assay, designed to assess cellular metabolic activity, was performed after incubation of the cells for 48 h. MTT (0.005 mg/mL) was added and the cells were incubated for 3 h, followed by solubilization of the cells using DMSO. […] The resulting values were normalized relative to the control group of the untreated cells (100%). Data are presented as mean ± standard deviation (n = 5–10).
Series [2] deals with Aβ levels in the mouse brain. Conditions: in vivo; ref [30]; cited from earlier work. From the text: The N-terminally truncated forms of GLP-1, GLP-1(7-36)/(7-37), secreted from intestinal L cells, control meal-related glycemic excursions by augmentation of insulin expression and secretion and inhibition of glucagon release (reviewed in [21]). Some population of neurons in the nucleus tractus solitarii of the brainstem can also express GLP-1 [22, 23].

The test system of series [3] is cultured neuronal cells. Conditions: ref [30], cited from earlier work.
Series [4] relates to AD patients. Conditions: cited from earlier work; for cognition and memory: patients with mild cognitive impairment and AD, ref [16]. From the text: Worldwide, approximately 416 million individuals are affected by AD dementia, prodromal AD, or preclinical AD, accounting for 22% of the population aged 50 years and older.
Series [5] has as its system animal AD models. Conditions: ref [29]; cited from earlier work.
For series [6], the system named is Aβ40 fibrillation. Put plainly: ThT fluorescence assay of Aβ40 fibrillation. The format is biochemical, Human. Conditions: 20 µM Aβ40, 10 µM GLP-1RA, 30 °C, pH 7.4. Here is the method: The influence of GLP-1RAs on Aβ40 fibril formation at 30 °C was studied using the ThT fluorescence assay at ThT and GLP-1RA concentrations of 10 μM for both components (Figure 4).
Standard deviations of the fluorescence signals are indicated. Excitation wavelength of 440 nm.
The Aβ40 sample was prepared as described in ref. [82] with some modifications (~5 mM NaOH at pH 11.8, 0.5 mg/mL). […] The control curves (without Aβ40; Figure S1) were subtracted from the corresponding kinetic curves of Aβ40 samples with/without GLP-1RAs. Each measurement was performed in 2–10 repetitions. The mean fluorescence signal values for each experimental sample were normalized to the average fluorescence signal corresponding to the saturation phase of Aβ40 fibril formation without additives. Data are presented as mean ± standard deviation.

The conditions of series [7]: cited from earlier work.
Series [8] can be described thus: Dynamic light scattering, quaternary structure of GLP-1RAs. The format is physicochemical. Conditions: DLS, 25 °C, pH 7.4. Here is the method: DLS measurements were carried out using a Zetasizer Nano ZS system (Malvern Instruments Ltd., Malvern, UK). The backscattered light from a 4 mW He-Ne laser at 632.8 nm was collected at an angle of 173°. […] The acquisition time for a single autocorrelation function was 100 s. The resulting autocorrelation functions were averaged values from three measurements. The volume-weighted size distributions were calculated using the following parameters for the buffer: the refractive index of 1.334 was measured using the RL3 refractometer (PZO, Warszawa, Poland); the viscosity value η = 0.95 mPa∙s was measured using a micro-rheology method with a water suspension of standard latex nanoparticles (NIST 3060A, Thermo Fisher Scientific, Waltham, MA, USA). The molecular mass and its standard deviation corresponding to the volume-weighted hydrodynamic radius MWRh distribution was calculated in approximation of a globular protein according to the equations from ref. [86]. The degree of multimerization was calculated as the MWRh/MWm ratio, where MWm is the molecular mass of the monomeric GLP-1RAs calculated from their molecular structure.

Series [9] deals with SH-SY5Y cells. The series can be described thus: MTT assay, Aβ40 cytotoxicity toward SH-SY5Y cells. Conditions: 48 h.
Method: as §1, §2, §3, §4
(§5) Freshly prepared Aβ40/Aβ42, GLP-1RAs, or their mixtures were added (100 µL per well) to the cultures 24 h after seeding to a final concentration of both components of 10 µM. The final volume of medium in the well was 200 µL. The MTT assay, designed to assess cellular metabolic activity, was performed after incubation of the cells for 48 h. MTT (0.005 mg/mL) was added and the cells were incubated for 3 h, followed by solubilization of the cells using DMSO. […] The resulting values were normalized relative to the control group of the untreated cells (100%). […]
The conditions of series [10]: b29: plasma concentrations; ref [61],[62]; cited from earlier work.
The subject of series [11] is SH-SY5Y cells. Put plainly: MTT assay, Aβ (Aβ40/Aβ42) cytotoxicity toward SH-SY5Y cells. Conditions: 10 µM Aβ40/Aβ42 and 10 µM GLP-1RA, 48 h, summary table.
Method: as §1, §2, §3, §4, §5
Series [12] deals with serum albumin (HSA). Conditions: attached fatty acid chain; ref [44],[45]; cited from earlier work.
For series [13], the system named is APP/PS1 AD mice. Conditions: ref [47],[48],[49]; cited from earlier work.
The subject of series [14] is Aβ40 fibrils. The series can be described thus: Negative-staining TEM of Aβ40 fibrils. The format is biochemical, Human. Here is the method:
The scale bars represent 1 μm.
A copper grid (300-mesh) coated with a 0.2% formvar film was placed on a 10 µL drop of the sample. […] Excess stain was removed using filter paper, and the grid was rinsed in deionized water for 1 min. The samples were analyzed using a JEM-1400Plus (HC) transmission electron microscope (JEOL, Ltd., Tokyo, Japan) at an accelerating voltage of 80 keV.

“Also recorded” adds a separate entry of the source. Where two headings read alike, the source gives them in different places. Ends that are not written are not given here.

For amyloid-β peptide, residues 1-42 [Aβ42], in [1] (10 µM Aβ42 alone, n = 5–10), the “decrease in cell survival” value is reported as 37%.
On to “GLP-1(7-36): N-terminally truncated form of glucagon-like peptide 1, residues 7-36 (HAEGTFTSDVSSYLEGQAAKEFIAWLVKGR; ends and bridges not checked; UniProt P01275 98-127, looked up)”, for which the “Aβ levels in the mouse brain” value in series [2] is reported as “reduce Aβ levels in the mouse brain in vivo”. In addition, in series [3] (cultured hippocampal neurons), the “protection against Aβ/iron-induced death” value is “protects cultured hippocampal neurons against Aβ/iron-induced death”. The “levels of APP” value in series [3] (cultured neuronal cells) is “decrease levels of APP in cultured neuronal cells”.
For the molecule donanemab, the side effects result in series [4] (human, in vivo) is “brain edema and microhemorrhages”.
Turning to `CN(C)C(=N)N=C(N)N` [metformin], in series [4], the cognition and memory entry was “can improve cognition and memory”.
Regarding `CC[C@H](C)[C@H](NC(=O)[C@H](Cc1ccccc1)NC(=O)[C@H](CCC(=O)O)NC(=O)[C@H](CCCCN)NC(=O)[C@H](C)NC(=O)[C@H](C)NC(=O)[C@H](CCC(N)=O)NC(=O)CNC(=O)[C@H](CCC(=O)O)NC(=O)[C@H](CC(C)C)NC(=O)[C@H](Cc1ccc(O)cc1)NC(=O)[C@H](CO)NC(=O)[C@H](CO)NC(=O)[C@@H](NC(=O)[C@H](CC(=O)O)NC(=O)[C@H](CO)NC(=O)[C@@H](NC(=O)[C@H](Cc1ccccc1)NC(=O)[C@@H](NC(=O)CNC(=O)[C@H](CCC(=O)O)NC(=O)[C@H](C)NC(=O)[C@@H](N)Cc1c[nH]cn1)[C@@H](C)O)[C@@H](C)O)C(C)C)C(=O)N[C@@H](C)C(=O)N[C@@H](Cc1c[nH]c2ccccc12)C(=O)N[C@@H](CC(C)C)C(=O)N[C@H](C(=O)N[C@@H](CCCCN)C(=O)NCC(=O)N[C@@H](CCCNC(=N)N)C(=O)NCC(=O)O)C(C)C` [GLP-1(7-37)], the “AD Animal Data: learning and memory” value in series [5] is “Positive effects on learning and memory [29]”. Also, the “Effect on Aβ40 Fibrillation (Figure 4 and Figure 5)” value in [6] (ThT assay and TEM, summary table) is “Inhibition”. For the same molecule, the “effect on Aβ40 fibrillation” value in [6] (ThT assay, 10 μM ThT, 25 mM Tris-HCl, 140 mM NaCl, ex 440/em 485 nm, 2–10 repetitions) is “inhibit Aβ40 fibrillation; also recorded: suppressed Aβ40 fibrillation; also recorded: suppression of Aβ40 fibrillation”. For the same molecule, the “ability to cross the BBB” value in series [7] (in vivo) is “possessed”. Further, the “oligomerization, in words” value in series [8] is “strong oligomerization”. In addition, in [8] (5–83 µM, globular protein approximation), the “molecular mass from Rh (MWRh)” value is given as >7 × 10^5 kDa.
Take `CCCCCCCCCCCCCCCC(=O)N[C@@H](CCC(=O)NCCCC[C@H](NC(=O)[C@H](C)NC(=O)[C@H](C)NC(=O)[C@H](CCC(N)=O)NC(=O)CNC(=O)[C@H](CCC(=O)O)NC(=O)[C@H](CC(C)C)NC(=O)[C@H](Cc1ccc(O)cc1)NC(=O)[C@H](CO)NC(=O)[C@H](CO)NC(=O)[C@@H](NC(=O)[C@H](CC(=O)O)NC(=O)[C@H](CO)NC(=O)[C@@H](NC(=O)[C@H](Cc1ccccc1)NC(=O)[C@@H](NC(=O)CNC(=O)[C@H](CCC(=O)O)NC(=O)[C@H](C)NC(=O)[C@@H](N)Cc1cnc[nH]1)[C@@H](C)O)[C@@H](C)O)C(C)C)C(=O)N[C@@H](CCC(=O)O)C(=O)N[C@@H](Cc1ccccc1)C(=O)N[C@H](C(=O)N[C@@H](C)C(=O)N[C@@H](Cc1c[nH]c2ccccc12)C(=O)N[C@@H](CC(C)C)C(=O)N[C@H](C(=O)N[C@@H](CCCNC(=N)N)C(=O)NCC(=O)N[C@@H](CCCNC(=N)N)C(=O)NCC(=O)O)C(C)C)[C@@H](C)CC)C(=O)O` [Lira, liraglutide]: in series [1] (10 µM Aβ42 + 10 µM GLP-1RA, serum-free medium), the “effect on Aβ42 cytotoxicity” value is listed as “abolished this effect; also recorded: most pronounced increase in the viability of SH-SY5Y cells”. In addition, the “effect on Aβ40 cytotoxicity” value in series [9] (10 µM Aβ40 + 10 µM GLP-1RA, serum-free medium) is recorded as “abolished this effect”. For the same molecule, in series [10], the peak plasma concentrations was 20 to 120 nM. For the same molecule, the “ability to cross the BBB” value in series [7] (conclusions, ref Table 4) is recorded as “possessed”. Besides, in [11], the “Effect on Aβ Cytotoxicity to SH-SY5Y Cells (Figure 7)” value is recorded as “Protection”. For the same molecule, the “binding to serum albumin / clearance” value in [12] was “favors binding to serum albumin, thereby slowing the clearance of Lira”. Moreover, the “crosses the BBB” value in [13] is “crosses the BBB”.
For insulin [intranasal insulin], in series [4], the cognition and memory result was “can improve cognition and memory”.
On to glucagon-like peptide 1 [GLP-1], for which, in [14] (after ThT assay, 20 µM Aβ40 with 10 μM GLP-1RA, 1% uranyl acetate), the “appearance of Aβ40 fibrils by TEM” value was “sporadic small fibril clusters were still observed”.
amyloid-β peptide, residues 1-40 [Aβ40]: the fibril length entry in [14] (printed as "up to", Aβ40 with 10 μM GLP-1RA) is recorded as “up to 2 µm”. Further, the “decrease in cell survival” value in series [9] (10 µM Aβ40 alone, n = 5–10) turned out to be 22%.
